Measurements as given in the NIST ThermoML archive (doi:10.1021/je900093h).

Experiments:
[1] = Molar enthalpy of transition or fusion; conditions: Crystal
[2] = for vapor or sublimation pressure: Liquid, Calculated from knudsen effusion weight loss

CCCCCCCCCC(=O)OCC [ethyl decanoate]
Conditions | Molar enthalpy of transition or fusion [kcal/mol]
[1] | 7.717

[2]
Conditions | Triple point temperature [K] | vapor or sublimation pressure [kPa]
293.77 K | – | 0.00169
298.67 K | – | 0.00267
298.72 K | – | 0.00267
303.68 K | – | 0.00414
308.61 K | – | 0.00648
313.57 K | – | 0.01
318.32 K | – | 0.0152
323.24 K | – | 0.0219
Crystal | 253.6 | –
